Values quoted from earlier work in patent US20110245202A1, “PHARMACEUTICAL COMPOSITION FOR THE TREATMENT OF RHINITIS” (priority 2003, published 2011).

Conditions: fraction of the action of naturally occurring (1R,2S)-ephedrine

## CN[C@H](C)[C@@H](O)c1ccccc1 [(1S,2R)-ephedrine]
  pharmacological action relative to the natural form (−)-ephedrine: approximately one third
